Broadly, the EC50 is the concentration that produces a half-maximal response.

In the test the target is Citrate synthase, peroxisomal (Saccharomyces cerevisiae (strain ATCC 204508 / S288c)) (UniProt P08679). The test can be described thus: yeast TOR pathway CIT2-GFP reporter potency – flow cytometry, MLPCN hits, dose response (AID 2744). The conditions noted are these: S. cerevisiae CIT2-GFP strain, 3 h; for GFP fluorescence, higher = induction: at 33 µM (top of the series); for EC50: flow cytometry fluorescence. For orientation: In flow cytometry, cells or beads pass a laser one at a time.

The source made the active and inactive calls.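 The calls were made as follows: active = fitted half-maximal concentration for changing reporter fluorescence at or below a set limit; inactive = the rest.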

Chain of Citrate synthase, peroxisomal (Saccharomyces cerevisiae (strain ATCC 204508 / S288c)) (P08679 whole entry, looked up): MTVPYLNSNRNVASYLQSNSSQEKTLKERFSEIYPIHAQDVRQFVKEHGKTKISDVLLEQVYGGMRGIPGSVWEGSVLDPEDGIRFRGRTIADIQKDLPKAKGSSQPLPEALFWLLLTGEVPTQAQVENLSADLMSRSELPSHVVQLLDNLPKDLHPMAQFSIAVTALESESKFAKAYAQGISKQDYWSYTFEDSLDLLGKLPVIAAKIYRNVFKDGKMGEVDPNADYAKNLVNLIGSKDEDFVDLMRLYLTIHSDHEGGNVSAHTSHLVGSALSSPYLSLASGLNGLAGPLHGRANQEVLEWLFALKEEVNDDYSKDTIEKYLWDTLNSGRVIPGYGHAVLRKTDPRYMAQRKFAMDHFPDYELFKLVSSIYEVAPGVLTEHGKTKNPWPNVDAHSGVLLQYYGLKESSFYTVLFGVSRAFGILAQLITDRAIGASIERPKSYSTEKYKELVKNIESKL

Take `O=c1oc(/C=C/c2ccc([N+](=O)[O-])s2)nc2ccccc12`: the “GFP fluorescence, higher = induction” value was “inactive”. Take `CSC1=NS(=O)(=O)c2c(C)nn(C)c2S1`: the “GFP fluorescence, higher = induction” value was “inactive”. On the same count and under the same terms, as for `CC(=O)Oc1oc(-c2ccccc2)nc1C=Nc1ccccc1`, the entry is “inactive”. Still for that read-out and setting: as for `CN(O)/C=c1/ccc2c(n1)C(=O)C=CC=2`, the entry is “inactive”; as for `Nc1c(C(=O)c2cccs2)sc2nsc(SCCN3CCCCC3)c12`, “inactive”. The same measure, in the same setting: as for `Cc1ccc2c(nc3s/c(=C\c4ccc(-c5ccccc5C(=O)O)o4)c(=O)n32)c1C`, the entry is “inactive”. In the case of `CCCCc1ccc(NC(=O)CC(C)=O)cc1`, the “GFP fluorescence, higher = induction” value is “inactive”. The same measure, in the same setting: the entry for `O=C(O)c1cc[c]([Hg][Cl])cc1` is “inactive”.

`O=C1C=CC(=O)N1c1ccc(OC(F)F)cc1`: the “GFP fluorescence, higher = induction” value is “inactive”.

Take `Cc1ccc2nc(/C(C#N)=C/c3ccc(O)c(O)c3)[nH]c2c1`: the “GFP fluorescence, higher = induction” value is “inactive”.

As for `COc1ccc(-c2cc3cc(C(=O)O)ccn3c2C(=O)c2ccccc2)cc1`, the “GFP fluorescence, higher = induction” value is “inactive”. Still for that read-out and setting: as for `Oc1c(CN2CCCCC2)cc(Br)c2cccnc12`, the entry is “inactive”. Same read-out and setting: as for `O=C1/C(=C\c2ccc(O)c(O)c2)SC(=S)N1Cc1ccccc1`, the entry is “inactive”; as for `CCc1ccc(C(=O)/C=C/c2ccc([N+](=O)[O-])o2)cc1`, “inactive”. For `CCCN1CCc2c(sc(NC(=S)NC(=O)c3ccccc3)c2C#N)C1`, the “GFP fluorescence, higher = induction” value was “inactive”. Still for that read-out and setting: the entry for `O=C1C(Cl)=C(N2CCN(Cc3ccccc3)CC2)C(=O)N1c1ccccc1` is “inactive”; for `Oc1c(I)cc(I)c2cccnc12` it is “inactive”; for `COC(=O)CCS(=O)(=O)c1nc(-c2ccccc2)cc(C(F)(F)F)n1` it is “inactive”. As for `COc1cccc2c(=O)c(C(=O)NCc3cccs3)c[nH]c12`, the “GFP fluorescence, higher = induction” value is “inactive”.

Regarding `O=C(NC(=S)NNC(=O)c1cnccn1)c1ccc(Cl)cc1`, the “GFP fluorescence, higher = induction” value was “inactive”.

Regarding `Cn1ncc2c(O/N=C(\N)c3ccc(C(C)(C)C)cc3)ncnc21`, the “GFP fluorescence, higher = induction” value was “inactive”. Still for that read-out and setting: as for `CCN(CC(=O)NC(C)(C)C)C(=O)COc1c(Cl)cc(Cl)c2ccc(C)nc12`, the entry is “inactive”; as for `O=[N+]([O-])c1ccc(Sc2nc3ccccc3o2)c([N+](=O)[O-])c1`, “inactive”. `Cc1ccc(/C=C/C(=O)c2ccccc(=O)c2O)c(C)c1`: the EC50 is 14.7 µM.

Take `O=c1[nH]c(-c2ccccn2)nc(C(F)(F)F)c1Br`: the “GFP fluorescence, higher = induction” value is “inactive”. Still for that read-out and setting: as for `Cc1ccc(NC(=O)c2ccc(Cl)c(N3C(=O)C=CC3=O)c2)cc1`, the entry is “inactive”; as for `O=C(NC(=S)Nc1ccc2oc(=O)ccc2c1)c1cccc(Cl)c1`, “inactive”; as for `Cc1cccc(/C=C/C(=O)c2ccc([N+](=O)[O-])o2)c1`, “inactive”.

As for `CC[C@]1(c2ccccc2OC)ON(c2ccccc2C(F)(F)F)C1=O`, the “GFP fluorescence, higher = induction” value is “inactive”. The same measure, in the same setting: as for `CC(C)[C@@]1(c2ccc(Cl)cc2)ON(c2ccccc2C(F)(F)F)C1=O`, the entry is “inactive”. As for `N/C(=N\OC(=O)c1ccc(Cl)cc1Cl)c1ccccc1`, the EC50 is 4.16 µM. `COc1ccccc1-c1nc2s/c(=C\c3cccs3)c(=O)n2n1`: the “GFP fluorescence, higher = induction” value is “inactive”. Turning to `Cc1ccc(S(=O)(=O)N2CC(C(=O)O)=CC[C@H]2c2ccc(Cl)cc2)cc1`, the “GFP fluorescence, higher = induction” value is “inactive”. Still for that read-out and setting: the entry for `Nc1ccccc1C#CC(=O)c1ccccc1` is “inactive”.

Take `COc1cccc(/C=C2\SC(=S)N(CCCC(=O)Nc3ccc(C(=O)O)cc3)C2=O)c1`: the “GFP fluorescence, higher = induction” value is “inactive”.

Take `Cc1cccc(N=Nc2ccc(O)c3ncccc23)c1`: the “GFP fluorescence, higher = induction” value is “inactive”.

With `CN1CCN(C(c2ccc(C(F)(F)F)cc2)c2ccc3cccnc3c2O)CC1` (stereo unspecified), the “GFP fluorescence, higher = induction” value was “inactive”.

Turning to `Nc1ccc(Br)c2c1C(=O)c1ccccc1C2=O`, the “GFP fluorescence, higher = induction” value is “inactive”. Same read-out and setting: as for `COc1ccc(C(=O)/C=C2/C(=O)Nc3ccccc32)c(OC)c1`, the entry is “inactive”; as for `COc1ccccc1[C@]1(C)ON(c2ccccc2C(F)(F)F)C1=O`, “inactive”. Same read-out and setting: as for `Cc1ccc(S(=O)(=O)N2CCCC2C(=O)NCc2ccncc2)cc1` (stereo unspecified), the entry is “inactive”; as for `Cc1c(NC2=C(Cl)C(=O)N(c3ccccc3)C2=O)c(=O)n(-c2ccccc2)n1C`, “inactive”.

On to `C=CCOc1cccc(C(=O)/C=C2/C(=O)Nc3ccccc32)c1`, for which the “GFP fluorescence, higher = induction” value was “inactive”. For the molecule `O=C(Cc1ccc(Cl)cc1)NNC(=S)NC(=O)c1cccs1`, the “GFP fluorescence, higher = induction” value is “inactive”. Same read-out and setting: the entry for `N/C(=N\OC(=O)c1cccc(Br)c1)c1ccccc1` is “inactive”; for `COc1ccccc1N=Nc1ccc(O)c2ncccc12` it is “inactive”; for `CC1(c2ccccc2)ON(c2ccccc2C(F)(F)F)C1=O` (stereo unspecified) it is “inactive”.

Consider `O=C(Nc1nnc(-c2ccc(Cl)cc2)o1)c1ccccc1Br`, for which the “GFP fluorescence, higher = induction” value is “inactive”. In the case of `CC(Oc1ccc(Br)cc1)C(=O)Nc1nc(-c2ccccn2)cs1` (stereo unspecified), the “GFP fluorescence, higher = induction” value is “inactive”. On the same count and under the same terms, the entry for `COc1ccc(OCC(=O)NNC(=S)NC(=O)C2CCCCC2)cc1` is “inactive”; for `O=c1cc(CSc2ccc(Cl)cc2)nc(-c2ccccn2)[nH]1` it is “inactive”; for `O=C(NOC(=O)c1ccccc1)c1ccccc1` it is “inactive”. On the same count and under the same terms, as for `Cc1cc(C)c(S(=O)(=O)ON2C(=O)c3ccccc3C2=O)cc1C`, the entry is “inactive”. With `CC(C)C(=O)NC(c1cccs1)c1cc([N+](=O)[O-])c2cccnc2c1O` (stereo unspecified), the “GFP fluorescence, higher = induction” value is “inactive”. Still for that read-out and setting: as for `COc1ccccc1C(=O)NNC(=S)NC(=O)c1cccs1`, the entry is “inactive”. The same measure, in the same setting: as for `CCOC(=O)CS(=O)(=O)c1nc(-c2ccc(F)cc2)cc(C(F)(F)F)n1`, the entry is “inactive”; as for `O=C(/C=C/c1ccccn1)c1cc(Br)ccc1O`, “inactive”; as for `CC(=O)[C@]1(O)Cc2c(O)c3c(c(O)c2[C@@H](O[C@H]2C[C@H](N)[C@H](O)[C@H](C)O2)C1)C(=O)c1ccccc1C3=O`, “inactive”. Still for that read-out and setting: the entry for `O=C(/C=C/c1cc(Br)ccc1O)c1ccco1` is “inactive”.

Regarding `O=[N+]([O-])c1cc(CN2CCN(c3cccc(C(F)(F)F)c3)CC2)c2cccnc2c1O`, the “GFP fluorescence, higher = induction” value was “inactive”. The same measure, in the same setting: as for `O=S(=O)(/N=C(/Sc1ccccc1)c1ccccc1)c1ccccc1`, the entry is “inactive”. Turning to `CNc1nc(N)c([N+](=O)[O-])c(Nc2cccc(F)c2)n1`, the EC50 was 4.36 µM. For the molecule `Cc1ccc(/C=C2/C(=O)ON=C2c2ccccc2)o1`, the “GFP fluorescence, higher = induction” value was “inactive”.

Turning to `O=S1(=O)C=C(Sc2nc3ccccc3s2)c2ccccc21`, the “GFP fluorescence, higher = induction” value is “inactive”. Still for that read-out and setting: the entry for `Oc1c(Br)cc(Br)cc1C=Nc1ccc2[nH]ncc2c1` is “inactive”. Same read-out and setting: as for `On1ccccc1=S`, the entry is “inactive”; as for `CCOc1ccc(C(C)=O)cc1N1C(=O)C2C3C=CC(O3)C2C1=O` (stereo unspecified), “inactive”. Same read-out and setting: as for `Cc1ccc(S(=O)(=O)c2ncccc2[N+](=O)[O-])cc1`, the entry is “inactive”; as for `O=C1N(c2ccccc2C(F)(F)F)OC1(Cc1ccccc1)c1ccccc1` (stereo unspecified), “inactive”; as for `COc1ccc2c(/C=C/c3cc[n+](C)cc3)c[nH]c2c1`, “inactive”. For the molecule `COc1cc(/C=C2\C(=O)N(CCC#N)N=C2C)c(Br)cc1OC(C)C`, the “GFP fluorescence, higher = induction” value was “inactive”. Same read-out and setting: as for `CCN(CC)c1ccc(/C=C2\C(=O)c3ccc(C(=O)O)cc3C2=O)cc1`, the entry is “inactive”; as for `CCn1c(/C=C/c2ccc([N+](=O)[O-])o2)nc2ccccc2c1=O`, “inactive”.

As for `O=C(Nc1ccc(NC(=O)c2cc3ccccc3o2)cc1)c1ccc2c(c1)OCCO2`, the “GFP fluorescence, higher = induction” value was “inactive”.

In the case of `Oc1ccc(Br)cc1/C=N/Nc1ccccn1`, the “GFP fluorescence, higher = induction” value was “inactive”. The same measure, in the same setting: the entry for `COc1ccc2c(c1)S/C(=C\C(=O)c1ccncc1)N2C` is “inactive”; for `Cc1[nH]c(-c2ccccn2)nc(=S)c1Cl` it is “inactive”. As for `CC(C)(C)C(=O)C(Cl)C(=O)Nc1ccccc1` (stereo unspecified), the “GFP fluorescence, higher = induction” value is “inactive”. The same measure, in the same setting: as for `Cc1c(C(=O)Nc2nc(-c3ccccn3)cs2)oc2ccccc12`, the entry is “inactive”; as for `O=C(Nc1ccc(N2CCOCC2)cc1)C1CCN(S(=O)(=O)c2ccc3c(c2)OCCO3)CC1`, “inactive”; as for `COc1ccc(OC)c(S(=O)(=O)ON2C(=O)c3ccccc3C2=O)c1`, “inactive”.

`Cc1cc(Br)c2c(c1)/C(=C/C(=O)c1cccs1)C(=O)N2`: the “GFP fluorescence, higher = induction” value is “inactive”. The same measure, in the same setting: as for `Cc1cccc(N2C(=O)C(Cl)=C(Nc3c(C)n(C)n(-c4ccccc4)c3=O)C2=O)c1C`, the entry is “inactive”. The same measure, in the same setting: as for `Cc1ccc(/C=C2\C(=O)NC(=S)N(c3ccc(F)cc3)C2=O)s1`, the entry is “inactive”; as for `O=C(NNC(=S)NC(=O)C12CC3CC(CC(C3)C1)C2)c1ccncc1`, “inactive”. For the molecule `COc1ccc(NC2=C(Cl)C(=O)N(CCc3ccccc3)C2=O)cc1`, the “GFP fluorescence, higher = induction” value was “inactive”.

The values above are taken from PubChem BioAssay AID2744 (NMMLSC, 2010).
